Tests used:
TxB2 = assay: Urinary TxB2 excretion by GC/MS, basal and bradykinin-stimulated (Example 3); type: in vivo, human; details: for Basal urinary TxB2 levels over placebo: 24 hours post-dosing; for Bradykinin-stimulated TxB2 levels over placebo: 4 hours post-dosing
Text: […] This protocol was repeated two additional times. […] Statistical analysis was done using Wilcoxon rank sum test for continuous variables and the Pearson test for categorical variables.

platelet aggregation [1] = assay: VerifyNow Aspirin Assay (ARU), turbidimetric optical detection in whole blood; type: in vivo, human; details: Visit 2 trough
Protocol: The VerifyNow® is a turbidimetric based optical detection system that measures platelet aggregation in the whole blood and reports the optical signals as aspirin reaction units (“ARU”). The percent change in ARU over 24 hours (“ARU24”) is calculated from 1 hour post dose using the following formulas: ARU12(%)=(([…]16(%)=(([…]1)*100 and ARU24(%)=(([…]1)*100. […] For this study the trough level data are from the following timepoints: (1) for 81 mg-the data at Visit 2; […]

[2] = system: serum 11-dehydro-thromboxane (TxB2) production; assay: Single dose inhibition of serum TxB2 production (enzyme immunoassay); type: in vivo, human; details: highest doses: ER ASA 81 mg, 162.5 mg (Durlaza), 325 mg; IR ASA 40 mg and 81 mg
Protocol: Healthy adults were randomized to receive single doses of extended release ASA (“ER ASA”) at a dosage of 20 mg, 40 mg, 81 mg, 162.5 mg ER ASA (Durlaza®; New Haven Pharmaceuticals, Inc., North Haven, Conn.), or 325 mg, or immediate release ASA (“IR ASA”; aspirin powder USP; Letco Medical, Decatur, Ala.) at a dosage of 5 mg, 10 mg, 20 mg, 40 mg or 81 mg. […] For pharmacodynamic assessments, serum 11-dehydro-thromboxane (“TxB2”, a stable metabolite of thromboxane A2) levels were assessed using a validated enzyme immunoassay kit in serial blood samples collected 1 hour before dosing and at 0.5, 1, 2, 4, 8, 16, and 24 hours after drug administration.

[3] = system: High Sensitive C-Reactive Protein (hs-CRP); assay: High Sensitive C-Reactive Protein (hs-CRP) test; type: in vivo, human; details: V2 pre-dose, 81 mg IR ASA
Protocol: Subjects were also measured for high sensitive C-reactive protein (“hs-CRP”) levels at Visit 1, Visit 2, Visit 3 pre-dose, Visit 3 at 24 hours, Visit 6 pre-dose and Visit 6 at 24 hours.
High Sensitive C-Reactive Protein (“hs-CRP”) was measured using a Seimens Immulite 2000® Xpi analyzer (Immulite 2000 is a registered trademark of Siemens Healthcare Diagnostic, Inc.), prior to 162.5 mg ER ASA (Durlaza®) dosing at Visit 2 pre-dose, at Visit 3 pre-dose and Visit 3 at 24-hr post-dose for the 162.5 mg ER ASA (Durlaza®) dose, and at Visit 6 pre-dose and Visit 6 at 24-hr post-dose for the 325 mg ER ASA dose.

Interleukin-8 (IL-8) = assay: Bradykinin-stimulated Interleukin-8 serum levels (Example 4); type: in vivo, human
Protocol: Subjects of Group 1 were randomly administered a placebo, 81 mg IR ASA and 162.5 mg IR ASA. Subjects of Group 2 were randomly administered a placebo, 81 mg ER ASA and 162.5 mg ER ASA (Durlaza®). Each subject was prohibited from taking any aspirin for two weeks prior to being administered the randomly chosen drug daily for 1 week followed by a urine collection 24 hours after dosing. This protocol was repeated two additional times. For each urine collection TxB2 and 2, 3-dinor-6-keto-PGF1α (“prostacyclin”) levels were measured using gas chromatography-mass spectrometry (“GC/MS”). Statistical analysis was done using Wilcoxon rank sum test for continuous variables and the Pearson test for categorical variables.
Interleukin-8 (“IL-8”) serum levels (and Interleukin-6 levels, not shown) were measured both prior to and after administration of 0, 81 or 162.5 mg of either IR ASA or ER ASA.

endothelial function = assay: Reactive hyperemia index (ENDOPAT pulsatile arterial tonometry); type: in vivo, human; details: for RHI < 1.67 (%): share of subjects
Protocol: Endothelial function was assessed using the ENDOPAT system ([…] Medical, Israel), a pulsatile arterial tonometry-based diagnostic device, at Visit 2, Visit 3, Visit 5, and Visit 6 predose. The reactive hyperemia index (“RHI”), a measure of endothelial function, and the augmentation index (“AI”), a measure of arterial stiffness, were determined. Endothelial dysfunction is defined as RHI<1.67. Normal arterial stiffness is defined as an AI -30% to -10%, increased arterial stiffness as an AI>-10% to 10%, and abnormal arterial stiffness as an AI>10%. The RHI measures vessel pliability which is a surrogate for nitric oxide production. The production of nitric oxide inhibits platelet aggregation. Thus, determining nitric oxide production following Durlaza® dosing is important to understanding its affect on platelet inhibition.

platelet aggregation [4] = details: 75 mg IR ASA; Würtz et al.; cited from earlier work
[5] = system: 2, 3-dinor-6-keto-PGF1α (prostacyclin); assay: Urinary 2,3-dinor-6-keto-PGF1α (prostacyclin) excretion by GC/MS, basal and bradykinin-stimulated (Example 3); type: in vivo, human
Protocol: Each subject was prohibited from taking any aspirin for two weeks prior to being administered the randomly chosen drug daily for 1 week followed by a urine collection 24 hours after dosing. This protocol was repeated two additional times. […] Statistical analysis was done using Wilcoxon rank sum test for continuous variables and the Pearson test for categorical variables.

[6] = HPT Group, Visit 5, 81 mg IR ASA

## CC(=O)Oc1ccccc1C(=O)O [IR ASA, acetylsalicylic acid]
TxB2; 81 mg daily for 1 week
  Basal urinary TxB2 levels over placebo: significantly reduced
TxB2; 81 mg vs 162.5 mg
  dose dependence of the effect on TxB2 synthesis: not seen
TxB2; 81 mg
  Bradykinin-stimulated TxB2 levels over placebo: significantly reduced
TxB2; 162.5 mg daily for 1 week
  Basal urinary TxB2 levels over placebo: significantly reduced
TxB2; 162.5 mg
  Bradykinin-stimulated TxB2 levels over placebo: significantly reduced
TxB2; doses of 81 and 162.5 mg/d
  selectivity for basal TxB2 production over prostacyclin production: selectively inhibit basal TxB2 production over prostacyclin production
Platelet aggregation [1]; 81 mg IR QD, main study
  VerifyNow Aspirin Assay (ARU): 477 ± 72 ARU
Platelet aggregation [1]; 81 mg IR, subjects compared with Visit 6 (sub-study)
  VerifyNow Aspirin Assay (ARU): 475 ± 102 ARU
[2]
  single dose inhibition of TxB2 production: maintained during a 24-hour period
[3]
  hs-CRP, Maximum: 57.4 mg/L
  hs-CRP, Mean: 9.62 mg/L
  hs-CRP, Minimum: 0.44 mg/L
Interleukin-8 (IL-8); 81 mg
  Bradykinin-stimulated IL-8 levels: increased
Interleukin-8 (IL-8); 162.5 mg
  Bradykinin-stimulated IL-8 levels: increased
Endothelial function; [6]
  Reactive Hyperemia Index, Maximum: 2.27
  Reactive Hyperemia Index, Mean: 1.74
  Reactive Hyperemia Index, Minimum: 1.23
  RHI < 1.67 (%): (44) %
Endothelial function; HPT Group, Visit 5, 81 mg IR ASA, listed as IR aspirin
  Reactive Hyperemia Index, Mean: 1.7±0.5
Endothelial function; Visit 2, 81 mg IR ASA
  Reactive Hyperemia Index, Maximum: 3.01
  Reactive Hyperemia Index, Mean: 1.94
  Reactive Hyperemia Index, Minimum: 0.58
  RHI < 1.67 (%): (27.5) %
Endothelial function; Visit 2, 81 mg IR ASA, listed as IR aspirin
  Reactive Hyperemia Index, Mean: 1.9±0.5
Platelet aggregation [4]
  AA induced and collagen induced platelet aggregation 24 hours after administration: significant increase
[5]; 81 mg
  Bradykinin-stimulated prostacyclin levels over placebo: significantly reduced
[5]; 81 mg daily for 1 week
  Basal prostacyclin levels over placebo: significantly reduced
[5]; 162.5 mg
  Bradykinin-stimulated prostacyclin levels over placebo: significantly reduced
[5]; 162.5 mg daily for 1 week
  Basal prostacyclin levels over placebo: significantly reduced

From patent US20170112857A1, “Extended Release Aspirin” (New Haven Pharmaceuticals, Inc., priority 2015, published 2017)
